# Source: paper PMC3703888, “Integration of Different “-omics” Technologies Identifies Inhibition of the IGF1R-Akt-mTOR Signaling Cascade Involved in the Cytotoxic Effect of Shikonin against Leukemia Cells” (Evidence-based Complementary and Alternative Medicine : eCAM, 2013)
# Tests used:
# EGFR = tested on: EGFR; set-up: method as in PMID 14568164; settings: previous studies ref 24; cited from earlier work
# U937 cells = assay: miRNA microarray; format: cell-based, human; settings: shikonin at IC50 concentration, 24 h
# Procedure: miRNA from U937 cells after 24 h of treatment with shikonin at IC50 concentration was isolated using miRNeasy Kit from Qiagen (Hilden, Germany) according to the manufacture's instruction. The quality of miRNA was checked by gel analysis using the Small RNA Nano chip assay on an Agilent 2100 Bioanalyzer (Agilent Technologies GmbH, Germany). The miRNA microarray was performed at the Institute for Molecular Biology (IMB). Microarray experiments were performed in duplicates for treated and untreated samples. Human miRNA microarray chips (8 × 60 K, Agilent Technologies) were used. Probe labeling and hybridization were carried out following the miRNA microarray system with miRNA complete labeling and hyb kit protocol (Agilent Technologies). Briefly, extracted RNA was treated with phosphatase. Dephosphorylated RNA was fluorescently labeled by ligation of Cyanine 3-pCp molecules to the 3′ end of RNA molecules using Agilent's miRNA Complete Labeling and Hyb Kit. The labeled RNA was desalted and hybridized for 20 hours at 55°C and 20 rpm. Microarray slides were washed and scanned with Agilent Microarray Scanning system. Images were analyzed and data were extracted, background subtracted, and normalized using the standard procedures of Agilent Feature Extraction Software. The expression data obtained was filtered with Chipster data analysis platform. These steps include filtering of miRNAs by two times standard deviation of deregulated genes and a subsequent assessment of significance using empirical Bayes t-test (P < 0.05).
smiles,measurement,setting,value
CC(C)=CC[C@@H](O)C1=CC(=O)c2c(O)ccc(O)c2C1=O [shikonin],EGFR phosphorylation,EGFR,inhibits EGFR phosphorylation
same,FC miRNA miR-19b-2-5p,U937 cells,+5.2
same,FC miRNA miR-20b-3p,U937 cells,+3.7
same,FC miRNA miR-30a-3p,U937 cells,+2.9
same,FC miRNA miR-33b-5p,U937 cells,+3.1
same,FC miRNA miR-92a-3p,U937 cells,+2.7
same,FC miRNA miR-155-3p,U937 cells,+3.4
same,FC miRNA miR-181a-2-3p,U937 cells,+3.2
same,FC miRNA miR-193b-3p,U937 cells,+2.7
same,FC miRNA miR-223-5p,U937 cells,+2.7
same,FC miRNA miR-513a-5p,U937 cells,−4.7
same,FC miRNA miR-630,U937 cells,−5.1
same,FC miRNA miR-638,U937 cells,−6.1
same,FC miRNA miR-1185-5p,U937 cells,−5.2
same,FC miRNA miR-1207-5p,U937 cells,−6.3
same,FC miRNA miR-1246,U937 cells,−6.0
same,FC miRNA miR-1290,U937 cells,−6.2
same,FC miRNA miR-1915-3p,U937 cells,−13.8
same,FC miRNA miR-2861,U937 cells,−9.8
same,FC miRNA miR-3907,U937 cells,+2.8
same,FC miRNA miR-4299,U937 cells,−30.6
